# System: cartilage degradation (proteoglycan content in the synovial fluid)
# Assay: Acute Cartilage Degradation Rat Model
# Type: in vivo
# Conditions: rats, after compound administration
# From the text: An in vivo model of acute cartilage degradation in rats has been characterized as a method to determine the proteoglycan content in the synovial fluid after the induction of cartilage degradation.
smiles,measurement,value
COc1ccc2c(c1)c(CC(=O)O)c(C)n2C(=O)c1ccc(Cl)cc1 [Indomethacin],"inhibition of cartilage degradation, as measured by increased proteoglycan content in the synovial fluid",inactive
